Data: US9950026B2, “Methods for reducing oxidative damage” (Cornell Research Foundation, Inc., priority 2004, dated 2018)
Where a SMILES comes first, the peptide text is derived from it. [ ]: non-standard residue; d: D form. Dmt = Cc1cc(O)cc(C)c1C[C@H](N)C(=O)O

How the values were obtained:
Caco-2 cells = assay: Mitochondrial potential (TMRM) after tBHP; type: cell-based, human; settings: tBHP 1 mM, SS-02 0.1 μM, 4 h
Procedure: Caco-2 cells were treated with tBHP (1 mM) in the absence or presence of SS-02 (0.1 μM) for 4 h, and then incubated with TMRM and examined under LSCM. In control cells, the mitochondria are clearly visualized as fine streaks throughout the cytoplasm.

DBA/2 islet cells = assay: Islet cell uptake of [3H]SS-31; type: in vitro ADME, mouse
Procedure: (§1) FIG. 33A-33B. SS peptides penetrate islet cells, co-localize with mitochondria and preserve islet mitochondrial membrane potential. (A) Islet cell uptake of SS-31. DBA/2 islet cells were incubated with 1 nM of tritium labeled SS-31 and 1 μM unlabeled SS-31 at 37° C. for 1 h. Following incubation, radioactivity was measured in the medium and in cell lysates and the radioactive counts in the medium were subtracted from radioactive counts in the cell lysate and normalized to protein content. In four consecutive experiments, the mean±(SE) [^3H]SS-31 uptake was 70.2+/31 10.3 pmol/mg, of proteins (B)(i-iv) SS-31 preserves islet mitochondrial potential. DBA/2 mice were treated with SS-31 (3 mg/kg s.c. BID) or vehicle control 24 hours prior to pancreas harvest for islet isolation. SS-31 treated groups had 1 nM SS-31 added to the islet isolation reagents. Following isolation, TMRM uptake was evaluated using confocal laser scanning microscopy.
Islets are tightly adherent cell clusters and entry of peptides/proteins may be impaired given their architecture.

SH-SY5Y = assay: tBHP-induced LDH release; type: cell-based, human; settings: 100 μM tBHP
Procedure: FIG. 18A-18B. SS-31 reduced tBHP-induced LDH release in SH-SY5Y (A) and N2A (B) cells. Cells were treated with 100 μM tBHP alone, or with SS-31, for 24 h. *P<0.05, **P<0.01, ***P<0.001, compared to tBHP alone.
The loss of cell viability induced by 100 μM tBHP was accompanied by a significant increase in LDH release in SH-SY5Y (FIG. 18A) and N2A cell (FIG. 18B).

[1] = test system: G93A transgenic familial ALS mice; assay: Disease onset, survival and tolerability in ALS mice; type: in vivo; settings: 5 mg/kg SS-31 i.p.
Procedure: FIG. 25A-25B. (A) Cumulative probability of disease on set and survival with SS-31 5 mg/kg/day treatment (n=14) […] as compared to vehicle treatment (n=14). […] (B) Mean survival (days) of G93A mice treated with vehicle or SS-31 5 mg/kg/day. (Data are mean±SD, p<0.05, Student's t-test).
Treatment with 5 mg-kg SS-31 i.p. started at 30 days of age of G93A transgenic familial amyotrophic lateral sclerosis (ALS) mice (high copy number, B6SJL-Tg(SOD1-G93A)1Gur/J) led to a significant delay of disease onset as defined by the appearance of tremor and hind limb clasping as well as deterioration in the rotarod performance, the average age of onset in the control group was 88+7 days, in the SS-31 treated group 95+6 days (p<0.05, Logrank (Mantel-Cox)). […] There was a gender effect on survival which has been observed in previous studies with this model as well in G93A mice in this background with males having a shorter life span than females (average of 5 days).

N2A cells = assay: Pan-caspase activity (FLICA kit) after tBHP; type: cell-based, murine
Procedure: FIG. 21A-B. SS-31 prevented caspase activation in N2A cells treated with tBHP. […]
[…] All treatments were carried out in quadriplicates. […] Cells were gently lifted from the plates with a cell detachment solution (Accutase, Innovative Cell Technologies, Inc., San Diego, Calif.) and washed twice in PBS. Caspase activity was assayed using the FLICA kit (Immunochemistry Technologies LLC, Bloomington, Minn.) According to the manufacturer's recommendation, cells were resuspended (approx. 5×10^6 cells/ml) in PBS and labeled with pan-caspase inhibitor FAM-VAD-FMK for 1 h at 37° C. under 5% CO2 and protected from the light. Cells were then rinsed to remove the unbound reagent and fixed. Fluorescence intensity in the cells was measured by a […] (Beckman-Coulter XL, Beckman Coulter, Inc., Fullerton, Calif.) using the standard emission filters for green (FL1). For each run, 10,000 individual events were collected and stored in list-mode files for off-line analysis.

DBA/2 mice islets = assay: Islets isolated from donor mice pre-treated with SS-31 (TMRM, yield, Annexin V/PI flow cytometry); type: in vivo
Procedure: as §1
FIG. 34A-34D. SS-31 reduces islet cell apoptosis. DBA/2 mice were pre-treated (24 and 12-hours hours prior to pancreas harvest and islet isolation) with SS-31 (3 mg/kg, s.c., BID) or vehicle control. SS-31 (1 nM was added to reagents used for the isolation of islets from SS-31-treated mice. The islets were dissociated in to single cells with trypsin/EDTA and were stained with Annexin V-FITC (AnV) and propidium iodide (PI) and analyzed with the use of dual parameter low cytometry. (A) Percentage of cell undergoing early apoptosis (AnV+cells); P=0.03. (B) Percentage of cells undergoing late apoptosis/early necrosis (AnV+/PI+cells); P=0.03. (C) Percentage of necrotic cells (PI+cells); P=1.0 (D) Percentage of viable cells (AnV-/PI-cells); P=0.03. Data from individual pancreatic islet isolations and mean±SE are shown, N=number of separate islet isolations. Two-tailed P-values were calculated using Mann-Whitney t-test.
Mitochondrial depolarization and the release of cytochrome c into the cytoplasm are critical antecedent events to cell death. TMRM, a fluorescent cationic indicator is taken up into mitochondria in a potential dependent manner.
To investigate whether the SS-31 optimizes islet isolation and results in increased islet yield, islet donor mice were pre-treated with SS-31.

| Compound | mitochondrial depolarization caused by tBHP (Caco-2 cells) | penetration of intact mouse islets (DBA/2 islet cells) | LDH release (SH-SY5Y; 0.1 and 1 nM of SS-31) | LDH release (SH-SY5Y; 24 h) | average age of onset [1] | survival [1] | tolerability / side effects [1] | increase in survival ([1]; vs control) | increase in pan-caspase activity (N2A cells; 100 μM tBHP, 24 h) | caspase activity (N2A cells; t-BHP 12 h) | uptake of TMRM by islets (mitochondrial potential) (DBA/2 mice islets; SS-31 3 mg/kg s.c. BID to donor, 1 nM in isolation reagents) | islet yield, mean±(SE) (DBA/2 mice islets; donor mice pre-treated with SS-31) | islet cell viability (Annexin V-/PI- cells) (DBA/2 mice islets; donor mice treated with SS-31) | late apoptosis/early necrosis (Annexin V+/PI+ cells) (DBA/2 mice islets; donor mice treated with SS-31) | percentage of early apoptotic cells (Annexin V alone positive cells) (DBA/2 mice islets; donor mice treated with SS-31) | percentage of necrotic cells (PI+ cells) (DBA/2 mice islets; donor mice treated with SS-31) |
| --- | --- | --- | --- | --- | --- | --- | --- | --- | --- | --- | --- | --- | --- | --- | --- | --- |
| 2′,6′-Dmt-Arg-Phe-Lys-NH2 [SS-02] | protected against mitochondrial depolarization | – | – | – | – | – | – | – | – | – | – | – | – | – | – | – |
| Cc1cc(O)cc(C)c1C[C@H](NC(=O)[C@H](N)CCCNC(=N)N)C(=O)N[C@@H](CCCCN)C(=O)N[C@@H](Cc1ccccc1)C(N)=O [SS-31, D-Arg-2′6′-Dmt-Lys-Phe-NH2] (H-[dR][Dmt]KF-NH2; N-terminus assumed) | – | readily penetrates | reduced significantly | dose-dependent decrease | 95+6 days | 142+12 day | well tolerated and no side effects were observed | 9% | dose-dependently prevented | dose-dependently inhibited | greater uptake of TMRM | 291±60 islets per pancreas | 62±3.5% | 12.6±1.8% | 5.5±1.0% | did not reduce |
